Reference: article PMC10111413 (ACS Infectious Diseases, 2023)

Key:
A. baumannii BV172 = assay type: cell-based; details: CLSI, cation-adjusted MHB, 18 h at 37 °C, three technical replicates
Experimental: (§1) VIII. Antimicrobial testing
(§2) Table S2. Minimum inhibitory concentrations (MICs) determined against panel of previously characterized colistin-resistant A. baumannii clinical isolates5
(§3) Strain Relacidine A (3a) Relacidine B (4a) Relacidamide (5) Colistin […]
(§4) aMIC values given in µg/ml.
(§5) All minimum inhibitory concentrations were determined according to Clinical and Standards Laboratory Institute (CLSI) guidelines. Blood agar plates were inoculated from glycerol stocks of the different A. baumannii strains used and then incubated for 16 h at 37 °C . Individually grown colonies were subsequently used to inoculate 5 mL aliquots of TSB that were then incubated at 37 °C. In parallel, the lipopeptide antibiotics DMSO stocks to be assessed were serially diluted with cation-adjusted MHB in polypropylene 96-well plates (50 µL in each well). Colistin sulfate stocks were dissolved in water before being diluted with cation-adjusted MHB. The A. baumannii inoculated TSB aliquots were incubated until an OD600 of around 0.5 was reached. The bacterial suspensions were then diluted with cation-adjusted MHB (2 x 10^5 CFU mL-1) and added to the microplates containing the test compounds (50 µL to each well). The well-plates were sealed with an adhesive membrane and after 18 h of incubation at 37 °C visually inspected for bacterial growth. MIC values reported are based on three technical replicates and defined as the lowest concentration of the compound that prevented visible

A. baumannii LAC-4 = assay type: cell-based; details: CLSI, cation-adjusted MHB, 18 h at 37 °C, three technical replicates
Experimental: as §1, §2, §3, §4, §5

A. baumannii ATCC 17978 = assay type: cell-based; details: CLSI, cation-adjusted MHB, 18 h at 37 °C, three technical replicates
Experimental: as §1, §2, §3, §4, §5

A. baumannii NCTC 13420 = assay type: cell-based; details: CLSI, cation-adjusted MHB, 18 h at 37 °C, three technical replicates
Experimental: as §1, §2, §3, §4, §5

A. baumannii BV94 = assay type: cell-based; details: colistin-resistant clinical isolate; CLSI, cation-adjusted MHB, 18 h at 37 °C, three technical replicates
Experimental: as §1, §2, §3, §4, §5

A. baumannii BV95 = assay type: cell-based; details: CLSI, cation-adjusted MHB, 18 h at 37 °C, three technical replicates
Experimental: as §1, §2, §3, §4, §5

A. baumannii HUMC1 = assay type: cell-based; details: CLSI, cation-adjusted MHB, 18 h at 37 °C, three technical replicates
Experimental: as §1, §2, §3, §4, §5

A. baumannii BV173 = assay type: cell-based; details: CLSI, cation-adjusted MHB, 18 h at 37 °C, three technical replicates
Experimental: as §1, §2, §3, §4, §5

A. baumannii NCTC 13304 = assay type: cell-based; details: CLSI, cation-adjusted MHB, 18 h at 37 °C, three technical replicates
Experimental: as §1, §2, §3, §4, §5

[1] = tested on: colistin-resistant A. baumannii isolate BV94; assay: G. mellonella larvae infection model; assay type: in vivo; details: injected 1 h postinfection, 10^5 cfu A. baumannii BV94 per larva, ten larvae per group, 37 °C
Source text: Given the promising in vitro activity of relacidamide (5), along with its high serum stability, low hemolytic activity, and ease of synthesis, we further evaluated its efficacy in an established in vivo infection model using G. mellonella larvae. The G. mellonella infection model has gained popularity in recent years and provides a convenient method to assess the in vivo effectiveness and toxicity of novel antibiotics.[15],[16] […] The larvae were first injected with either vehicle (PBS) or A. baumannii BV94 suspension in the right second proleg. The moth larvae were then injected in the left second proleg with either PBS (untreated), colistin at 100 mg/kg or 200 mg/kg, or relacidamide (5) at 100 mg/kg or 200 mg/kg. The G. mellonella larvae were then incubated for 72 h, and their survival was assessed twice per day. […]
Ten G. mellonella larvae (Serum Therapeutics Inc., average weight of 0.265 g) per group were infected using a 10 μL injection in the right second proleg with mid-log phase (OD600 = 0.5)-growing bacteria resuspended and diluted in phosphate-buffered saline (PBS) to achieve the target inoculum of 10^5 colony forming unit (cfu) per larva. […] The viability of the larvae was assessed twice a day up to a total of 72 h postinfection by checking for movement. […]

For colistin [reference compound], the “MIC A. baumannii BV172” value (A. baumannii BV172) was over 64 µg/mL, the “MIC A. baumannii LAC-4” value (A. baumannii LAC-4) was 0.5 µg/mL and the “MIC A. baumannii ATCC 17978” value (A. baumannii ATCC 17978) was 1 µg/mL. The “MIC A. baumannii NCTC 13420” value (A. baumannii NCTC 13420) was 0.5 µg/mL, the “MIC A. baumannii BV94” value (A. baumannii BV94) was over 64 µg/mL and the “MIC A. baumannii BV95” value (A. baumannii BV95) was 32 µg/mL. The “MIC A. baumannii HUMC1” value (A. baumannii HUMC1) was 1 µg/mL, the “MIC A. baumannii BV173” value (A. baumannii BV173) was 16 µg/mL and the “MIC A. baumannii NCTC 13304” value (A. baumannii NCTC 13304) was 1 µg/mL. For the same substance, the “survival of G. mellonella larvae after 72 h” value ([1]; 100 mg/kg) was “none” and the “survival of G. mellonella larvae after 72 h” value ([1]; 200 mg/kg) was “none”.
